From publication PMC7650666, “Computational and In Vitro Investigation of (-)-Epicatechin and Proanthocyanidin B2 as Inhibitors of Human Matrix Metalloproteinase 1” (Biomolecules, 2020)

Columns and labels:
[1] = target: T1, Matrix metalloproteinase 1 (MMP-1) (Homo sapiens, UniProt P03956); assay: casein zymography of protein from fibroblast culture medium preincubated with compound; format: cell-based; details: read-out: % inhibition at 1000 μg/mL
T1 construct: gene MMP1; MMP-1 secreted by human fibroblast (Detroit551) cells, 54 kDa band
T1 sequence (P03956 20-469): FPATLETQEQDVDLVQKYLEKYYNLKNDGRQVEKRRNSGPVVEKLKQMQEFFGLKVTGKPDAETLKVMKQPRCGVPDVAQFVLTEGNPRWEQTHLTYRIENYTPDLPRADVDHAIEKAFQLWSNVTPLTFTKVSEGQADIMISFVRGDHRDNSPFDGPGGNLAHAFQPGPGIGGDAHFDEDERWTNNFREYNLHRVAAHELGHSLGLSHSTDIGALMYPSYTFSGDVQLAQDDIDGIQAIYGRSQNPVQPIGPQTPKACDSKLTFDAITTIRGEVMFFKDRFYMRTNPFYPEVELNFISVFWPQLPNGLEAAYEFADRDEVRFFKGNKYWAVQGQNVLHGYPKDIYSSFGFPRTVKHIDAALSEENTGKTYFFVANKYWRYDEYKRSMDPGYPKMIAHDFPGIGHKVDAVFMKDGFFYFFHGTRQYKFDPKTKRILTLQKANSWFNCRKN

[2] = target: T1, Matrix metalloproteinase 1 (MMP-1); assay: casein zymography of protein from fibroblast culture medium preincubated with compound (reference inhibitor); format: cell-based; details: read-out: % inhibition at 1000 μg/mL

Row | Compound | inhibition at 1000 µg/mL [1] [%] | inhibition at 1000 µg/mL [2] [%]
1 | Oc1cc(O)c2c(c1)O[C@H](c1ccc(O)c(O)c1)[C@H](O)C2 [(-)-epicatechin] | 69.2 | 
2 | O=C(O[C@@H]1Cc2c(O)cc(O)cc2O[C@@H]1c1cc(O)c(O)c(O)c1)c1cc(O)c(O)c(O)c1 [epigallocatechin gallate] |  | 75.6
3 | Oc1cc(O)c2c(c1)O[C@H](c1ccc(O)c(O)c1)[C@H](O)[C@H]2c1c(O)cc(O)c2c1O[C@H](c1ccc(O)c(O)c1)[C@H](O)C2 [proanthocyanidin B2] | 43.4 | 
